Results from patent EP0488079A1, “Oxadiazolylmethylpurines, their preparation, and their pharmaceutical use” (CHINOIN Gyògyszer és Vegyészeti Termékek Gyára RT., priority 1990, dated 1992).
Like-named read-outs stand apart in the source and are kept apart here.

Experiments:
[1] = test system: durch Histamin ausgelösten Anstiegs des Widerstands der Luftwege; test: Inhibition of the histamine-induced rise in airway resistance in cats; format: in vivo, Katzen; conditions: for Wirkungsmaximum: 3 µg/kg histamine i.v., 4 mg/kg substance intraduodenal, measured minute 10 to 120; for rel.Wirkungsstärke: relative to Theophyllin = 1,00
Source text: Die Hemmung des durch Histamin ausgelösten Anstiegs des Widerstands der Luftwege wurde an Katzen untersucht (M.A. Wassermann, D.W. Du Charme, Prostaglandins, 1977, 255).
Minute gemessen. […] Tabelle 4

[2] = test system: isolierten glatten Luftröhrenmuskel des Meerschweinchens; test: Inhibition of the constrictor effect of histamine on isolated tracheal smooth muscle; format: cell-based, Meerschweinchen; conditions: against histamine, isolated guinea pig tracheal smooth muscle; for EC50: cumulative dose series, read-out: p d 2 (converted)
Source text: Am glatten Luftröhrenmuskel des Meerschweinchens ist die Wirkung der Verbindung Ia der des Theophyllins ähnlich, wenn die Wirkung gegen Histamin in einer kumulativen Dosisreihe untersucht wird (Tabelle 3). Tabelle 3

[3] = test system: durch einen 15 %-igen Citronensäurespray hervorgerufenem Husten; test: Antitussive effect, cough induced in guinea pigs by 15 % citric acid spray; format: in vivo, Meerschweinchen; conditions: Cavia porcellus, po, 1 h, read-out: ED₅₀ (±S.D.)
Source text: Die hustenlindernde Wirkung wurde auch an Meerschweinchen untersucht, an denen die Dämpfung des durch einen 15 %-igen Citronensäurespray ausgelösten Hustens bestimmt wurde (I. Erdély, L. Tardos, Arzneim. Forsch. 1966, 617). Die hustenlindernden Mittel wurden eine Stunde vor der Messung oral verabreicht. Auch in diesem Test erwies sich die Verbindung Ia als starkes Hustenlinderungsmittel; ihre Wirkung übertraf die der Referenzsubstanzen (Tabelle 2). Tabelle 2

Mäusen [4] = test: Acute oral toxicity in mice; conditions: p.o.
[5] = test system: durch elektrische Reizung des Nervus laryngeus Husten; test: Antitussive effect, cough induced in cats by electrical stimulation of the Nervus laryngeus; format: in vivo, Katzen; conditions: for ED50: Felis catus, po, cough by electrical stimulation, p.o., p <0,001, read-out: ED₅₀ (±S.D.)
Source text: Die hustenlindernde Wirkung der Verbindung Ia wurde an Katzen untersucht, an denen durch elektrische Reizung des Nervus laryngeus Husten ausgelöst worden war (R. Domenjoz, Arch. Exp. Path. 1952, 19). Die zu untersuchenden Verbindungen wurden i.v. beziehungsweise mit Schlundsonde p.o. verabreicht. […] Tabelle 1

Mäusen [6] = conditions: in vivo
[7] = test system: Zentralnervensystem und das Herz; test: Respiratory depression and side effects on central nervous system and heart; format: in vivo
[8] = Absorption after oral administration; format: in vivo; conditions: without salt formation
[9] = test system: sensibilisierten Meerschweinchen; test: Experimental asthma (anaphylaxis): airway resistance in ovalbumin-sensitised guinea pigs after intratracheal ovalbumin; format: in vivo; conditions: for δ (Änderung des Beatmungswiderstands): deviation from own value after dosing
Description: Die Meerschweinchen wurden durch eine einmalige Gabe von 1 µg/kg Ovalbumin i.v. sensibilisiert (Andersson, Brattsand, Br. J. Pharmacol. 1982, 139) und bekamen nach 40 Tagen die zu untersuchenden Verbindungen in einer Dosis von 10 mg/kg i.v. Die narkotisierten, muskelrelaxierten und künstlich beatmeten Tiere erhielten 3 mg/kg Ovalbumin intratracheal, und zu unterschiedlichen Zeitpunkten wurde gemessen, wie stark die zu untersuchenden Verbindungen den Anstieg des Widerstandes der Luftwege zu kompensieren vermochten.
Nach Narkose Präparation und Verabreichung eines Muskelrelaxans Beatmung 1. Messung: 5 min nach Injizierung von 10 mg/kg Wirkstoff, dann intratracheale Provokation (Minute 0) 2. Messung: 3 min nach intratrachealer Provokation 3. Messung: 6 min nach intratrachealer Provokation 4. Messung: 12 min nach intratrachealer Provokation 5. Messung: 24 min nach intratrachealer Provokation.
Die Beatmung erfolgte mit positivem Druck bei einer Frequenz von 90/min und einem Volumen von 3 ml.
Die Kontrollgruppe erhielt physiologische Kochsalzlösung. Der Wert δ ist die Abweichung von dem eigenen, nach der Verabreichung der Dosis von 10 mg/kg Wirkstoff gemessenen Wert (Eigenkontrolle).

Water solubility = format: physicochemical
[10] = 10 mg/kg i.v., 3 min after intratracheal ovalbumin
[11] = 10 mg/kg i.v., 6 min after intratracheal ovalbumin
[12] = 10 mg/kg i.v., 12 min after intratracheal ovalbumin
[13] = 10 mg/kg i.v., 24 min after intratracheal ovalbumin

Cn1c(=O)c2[nH]cnc2n(C)c1=O [Theophyllin, reference compound]
Wirkungsmaximum [1]: 15,7 | rel.Wirkungsstärke ([1]; 4 mg/kg intraduodenal): 1,00 | EC50 [2]: 4.17 µM | Emax [2]: 44%

COc1ccc2c(c1)[C@]13CCCC[C@@H]1[C@H](C2)N(C)CC3 [Dextromethorphan HBr]
ED50 [3]: 5.26 mg/kg | DL₅₀ (Mäusen [4]): 165,9 mg/kg

COc1ccc2c3c1O[C@H]1[C@@H](O)C=C[C@H]4[C@@H](C2)N(C)CC[C@@]341.Cl [Codeïn HCl]
ED50 [3]: 12.8 mg/kg | DL₅₀ (Mäusen [4]): 359,2 mg/kg | ED50 [5]: 4.33 mg/kg

Cc1nc(Cn2cnc3[nH]c(=O)n(C)c(=O)c32)no1 [Verbindung Ia, 1-Methyl-7-(5-methyl-1,2,4-oxadiazol-3-yl)-methyl-3,7-dihydro-3H-purin-2,6-dion]
therapeutischer Index (Mäusen [6]): um mehr als eine Größenordnung besser als der der Referenzsubstanzen | DL₅₀ (Mäusen [6]; mouse, po): > 2000 mg/kg | atmungsdämpfende Wirkung ([7]; in contrast to the reference substances): keine atmungsdämpfende Wirkung | unerwünschte Nebenwirkungen auf das Zentralnervensystem und das Herz ([7]; side effects characteristic of Theophyllin): nicht aufweist | Wirkungsmaximum [1]: 28,2 | Dauer der Wirkung ([1]; 4 mg/kg intraduodenal, compared with Theophyllin): hielt längere Zeit an | rel.Wirkungsstärke ([1]; 4 mg/kg intraduodenal): 1,79 | EC50 [2]: 3.31 µM | Emax [2]: 36% | ED50 ([3]; guinea pigs, 15 % citric acid spray, one hour after p.o. administration, p <0,001): 3.04 mg/kg | Resorption [8]: ausgezeichnet und schnell resorbiert | Beatmungswiderstand R [9, 10]: 9,21±0,84 Pa/ml/s | δ (Änderung des Beatmungswiderstands) [9, 10]: 1,14±0,77 Pa/ml/s | Beatmungswiderstand R [9, 11]: 9,41±0,91 Pa/ml/s | δ (Änderung des Beatmungswiderstands) [9, 11]: 1,34±0,96 Pa/ml/s | Beatmungswiderstand R [9, 12]: 10,10±0,94 Pa/ml/s | δ (Änderung des Beatmungswiderstands) [9, 12]: 2,03±0,44 Pa/ml/s | Beatmungswiderstand R [9, 13]: 9,92±1.11 Pa/ml/s | δ (Änderung des Beatmungswiderstands) [9, 13]: 1,85±0,64 Pa/ml/s | Beatmungswiderstand R ([9]; nach 10 mg i.v. (5 min after injection, before intratracheal ovalbumin provocation)): 8,07±0,93 Pa/ml/s | Wasserlöslichkeit (Water solubility): mäßigen Wasserlöslichkeit | ED50 [5]: 3.74 mg/kg | hustenlindernde Wirkung ([5]; i.v. and p.o.): bedeutende hustenlindernde Wirkung | Zeitdauer der Wirkung ([5]; i.v. and p.o., compared with reference substances): länger als die der Referenzsubstanzen
